Measured values taken from EP3419609B1, “TREATMENT OF ALKAPTONURIA AND TYROSINEMIA TYPE 1” (Università degli Studi di Siena, priority 2016, dated 2017).
Read-outs that look alike come from different tables or passages of the source.

Assays:
[1] = system: primary human fibroblasts (HFb); assay: in vitro; assay type: cell-based
Description: (§1) 12×10^4 primary human fibroblasts (ATCC, cat PCS-201-012) were treated with compounds at various concentrations (10^-7 M, 10^-6 M, 10^-5 M, 10^-4 M, 10^-3 M) for 24 and 144 h. HFb were cultured as described in [21]. Cellular viability was quantified by the MTT assay (Sigma-Aldrich cod. M5655) as described in [22]. Controls were performed treating the cells with vehicle (DMSO) alone. Calculation of LD50 was performed by means of the Origin® - Data Analysis and Graphing software using a sigmoid type interpolating curve.
(§2) LD50 was evaluated in vitro using the MTT cell viability assay for the first time on human cells, in particular on primary human fibroblasts (HFb). […] Intracellular tyrosine was measured in HFb by LC-MS-MS analysis.

[2] = target: T1, 4-HPPD (Rattus norvegicus, UniProt P32755); assay: Determination of 4-HPPD activity by oxygen consumption (SDR SensorDish Reader) in rat liver cytosol; assay type: biochemical, male Wistar rat
T1 construct: from tissue; host or cells: liver cytosol of a male Wistar rat
Description: 4-HPPD activity was evaluated in the liver cytosol of a male Wistar rat by monitoring oxygen consumption through the use of the SDR SensorDish® Reader (Presens, Precision Sensing GmbH, Regensburg, Germany). Briefly, a special test tube with an oxygen sensor placed on the bottom was filled with 0.2 M sodium phosphate buffer with pH 7.4, 1.7 mM ascorbic acid (used as a cofactor) and 10.92 mg of rat enzyme preparation (4-HPPD source). The mixture was equilibrated at 37°C for 5 min. and the reaction was started by the addition of substrate ([…], Sigma-Aldrich cod. SAE0003). […] The percentage of inhibition of enzymatic activity was calculated as the ratio of the slopes (decrease of the concentration of O2 (µmol/L) per min.) of the samples containing the inhibitor versus the untreated controls corrected with the negative control values. The IC50 values were calculated by means of regression analysis in the range of tested concentrations by means of the Origin® - Data Analysis and Graphing software using a sigmoid type interpolating curve and plotting on the x-axis the concentrations of the compounds and on the y-axis oxygen consumption values expressed as a percentage of 4-HPPD inhibition, the reduction of oxygen being correlated with inhibition of the enzyme.
4-HPPD inhibition was determined in the cytosolic extract of rat liver (source of the enzyme), by evaluation of enzymatic consumption of oxygen using the SDR SensorDish ® Reader, and was expressed as an IC50 value.

[3] = system: human fibroblasts (HFb); assay: Tyrosine dosage: intracellular tyrosine in HFb by LC-MS-MS; assay type: cell-based; settings: for slope of dose-response curve of intracellular tyrosine: tyrosine ng in 9×10^4 cells versus concentration, Figure 3A
Description: Intracellular tyrosine was calculated in HFb (9×10^4 cells/well) treated for 72 h with the compounds under assessment at various concentrations (10^-8, 10^-7, 10^-6 and 10^-5 M); controls were performed using the carrier at the concentration corresponding to the highest dose of the compound under assessment. At the end of treatment, the cells were recovered by scraping in the presence of norvaline (10^-3 M, used as internal standard, Sigma-Aldrich cod. N7627) and cold methanol (40 µL, Sigma-Aldrich cod. 34860), and subsequently lysed by cycles of freezing/thawing in a bath of dry ice/nitrogen. The lysate was centrifuged (6000g for 5 min) and the supernatant was then recovered, evaporated and re-suspended with 100 µL of 0.05% formic acid. Each sample was analysed by LC-MS-MS. In particular, the analysis was performed with a chromatographic instrument manufactured by Varian (Varian Inc.) run by the software Varian MS Workstation System Control Vers. […] Subsequently, the concentration of each compound was correlated with the amount of intracellular tyrosine contained in 9×10^4 cells and the resulting dose-response curve was obtained using the Origin® - Data Analysis and Graphing software by means of a linear type interpolating curve.
as §2

[4] = alkaptonuria patients, over the course of 3 years; cited from earlier work
[5] = in vitro; assay type: cell-based; settings: after 144 h of treatment, concentration 1 mM; read-out: viability of HFb
Description: as §1, §2

[6] = rat liver cytosol, oxygen consumption, read-out: IC50
[7] = rat liver cytosol, oxygen consumption, read-out: IC50 (4-HPPD inhibitory activity)
[8] = rat liver cytosol, oxygen consumption

T1 sequence (P32755 whole entry): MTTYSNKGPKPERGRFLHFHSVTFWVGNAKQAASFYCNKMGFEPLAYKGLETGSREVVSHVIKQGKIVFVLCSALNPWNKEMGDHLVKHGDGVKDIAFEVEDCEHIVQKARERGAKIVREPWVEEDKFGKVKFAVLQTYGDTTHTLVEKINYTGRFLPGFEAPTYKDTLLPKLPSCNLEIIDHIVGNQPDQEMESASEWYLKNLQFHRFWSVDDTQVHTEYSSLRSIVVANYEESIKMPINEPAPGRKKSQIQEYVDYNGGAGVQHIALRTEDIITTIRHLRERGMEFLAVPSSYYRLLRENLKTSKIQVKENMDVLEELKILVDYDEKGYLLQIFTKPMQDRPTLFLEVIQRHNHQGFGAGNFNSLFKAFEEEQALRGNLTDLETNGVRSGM

CC1(C)CC(=O)C(C(=O)c2ccc(C(F)(F)F)cc2Cl)C(=O)C1 [Compound 14, 2-(2-Chloro-4-trifluoromethylbenzoyl)-5,5-dimethyl-cyclohexane-1,3-dione]
cytotoxicity (in words) [1]: not cytotoxic
IC50 [2, 6]: 10500 ± 3700 nM

CS(=O)(=O)c1ccc(C(=O)C2C(=O)CCCC2=O)c([N+](=O)[O-])c1 [Compound 4, 2-(4-Methylsulfonyl-2-nitrobenzoyl)-cyclohexane-1,3-dione]
tyrosine level lower than in the control ([3]; 72 h, highest inhibitor concentration, p<0.01): about 14%
intracellular tyrosine levels higher than in the control group ([3]; 72 h, lowest inhibitor concentration analysed, p<0.01): about 17%
LD50 24 hours ([1]; HFb, MTT, 24 hours treatment): 1.1 ± 0.1 mM
LD50 144 hours ([1]; HFb, MTT, 144 hours treatment): >1 mM [c]
IC50 [2, 6]: 36.7 ± 9.7 nM
IC50 [2, 7]: 36.7 nM

O=C1CCC(c2ccccc2)C(=O)C1C(=O)c1ccc(Cl)cc1Cl (centres unmarked) [Compound 13, 2-(2,4-dichlorobenzoyl) -4-phenyl-cyclohexane-1,3-dione]
LD50 24 hours ([1]; human, 24 h): >1 mM [c]
LD50 144 hours ([1]; human, 144 h): 0.36 ± 0.15 mM
IC50 [2, 6]: 279 ± 6 nM

CS(=O)(=O)c1cc(C(F)(F)F)ccc1C(=O)c1cnoc1C1CC1 [Compound 5]
LD50 24 hours ([1]; HFb, MTT, 24 hours treatment): >1 mM [c]
LD50 144 hours ([1]; HFb, MTT, 144 hours treatment): 0.11 ± 0.07 mM
IC50 [2]: 399 ± 19 nM

CC1(C)C(Cl)C(=O)C(C(=O)c2ccccc2)C(=O)C1Cl (centres unmarked) [Compound 11, 2-Benzoyl-4,6-dichloro-5,5-dimethyl-cyclohexane-1,3-dione]
LD50 24 hours ([1]; human, 24 h): >1 mM [c]
LD50 144 hours ([1]; human, 144 h): 0.29 ± 0.08 mM
IC50 [2, 6]: 192 ± 2 nM

O=C1CCCC(=O)C1C(=O)c1ccc(C(F)(F)F)cc1[N+](=O)[O-] [Compound 1, 2-(2-nitro-4-(trifluoromethyl)benzoyl)cyclohexane-1,3-dione, reference compound]
intracellular tyrosine increased compared to untreated HFb ([3]; 72 h, concentration 10^-5 M): ~32%
intracellular tyrosine increased compared to untreated HFb ([3]; 72 h, concentration 10^-6 M): about 21%
slope of dose-response curve of intracellular tyrosine ([3]; 72 h): 5.47
LD50 24 hours ([1]; human, 24 h): >1 mM [c]
LD50 at 24 h ([1]; human, 24 h): > 10^-3 M
LD50 144 hours ([1]; human, 144 h): ~1 mM
LD50 at 144 h ([1]; human, 144 h): 10^-3 M
reduction of HGA in urine and plasma [4]: 95%

CC1(C)CC(=O)C(C(=O)c2ccccc2)C(=O)C1Cl (centres unmarked) [Compound 8, 2-Benzoyl-4-chloro-5,5-dimethyl-cyclohexane-1,3-dione]
LD50 24 hours ([1]; human, 24 h): >1 mM [c]
LD50 144 hours ([1]; human, 144 h): >1 mM [c]
IC50 [2, 8]: no inhibition

CC1(C)CC(=O)C(C(=O)c2ccc([N+](=O)[O-])cc2Cl)C(=O)C1 [Compound 6, 2-(2-chloro-4-nitro-benzoyl)-5,5-dimethyl-cyclohexane-1,3-dione]
intracellular tyrosine accumulation lower than that found for compound 1 ([3]; highest concentration tested, treatment for three days, p<0.01): about 7%
viability at 144 h, 1 mM [5]: ~75%
LD50 24 hours ([1]; human, 24 h): >1 mM [c]
LD50 144 hours ([1]; human, 144 h): >1 mM [c]
residual activity of the enzyme ([2]; rat liver cytosol 4-HPPD): ~30%
IC50 [2, 6]: 36.4 ± 9.3 nM
IC50 ([2]; rat liver cytosol, read-out: IC50): ~36.4 nM

CS(=O)(=O)c1ccc(C(=O)C2C(=O)CCCC2=O)c(Cl)c1COCC(F)(F)F [Compound 3, 2-[2-Chloro-4-methylsulfonyl-3-(2,2,2-trifluoroetoxymethyl)benzoyl]cyclohexane-1,3-dione]
slope of dose-response curve of intracellular tyrosine ([3]; 72 h): 1.89
LD50 24 hours ([1]; HFb, MTT, 24 hours treatment): >1 mM [c]
LD50 144 hours ([1]; HFb, MTT, 144 hours treatment): >1 mM [c]
LD50 ([1]; HFb, treatment time not given): greater than 10^-3 M
IC50 [2, 6]: 152 ± 6 nM
IC50 [2, 7]: 152 nM

CC1(C)CC(=O)C(C(=O)c2ccccc2)C(=O)C1 [Compound 9, 2-Benzoyl-5,5-dimethyl-cyclohexane-1,3-dione]
LD50 24 hours ([1]; human, 24 h): >1 mM [c]
LD50 144 hours ([1]; human, 144 h): >1 mM [c]
IC50 [2, 8]: no inhibition

COC(=O)C1C(=O)C(C(=O)c2ccc([N+](=O)[O-])cc2)C(=O)CC1(C)C (centres unmarked) [Compound 7, 2,2-Dimethyl-5-(4-nitrobenzoyl)-4,6-dioxycyclohexane methyl carboxylate]
LD50 24 hours ([1]; human, 24 h): 0.63 ± 0.12 mM
LD50 144 hours ([1]; human, 144 h): >1 mM [c]
IC50 [2, 8]: no inhibition

CS(=O)(=O)c1ccc(C(=O)C2C(=O)C(O)CC(O)C2=O)c(Cl)c1COCC(F)(F)F (centres unmarked) [Compound 2, 2-[2-Chloro-4-methylsulfonyl-3-(2,2,2-trifluoroetoxyimethyl)benzoyl]-4,6-dihydroxy-cyclohexane-1,3-dione]
LD50 24 hours ([1]; human, 24 h): 0.48 ± 0.04 mM
LD50 144 hours ([1]; human, 144 h): 0.48 ± 0.03 mM
IC50 [2, 6]: 227 ± 9 nM

CC1(C)CC(=O)C(C(=O)c2ccc(C(F)(F)F)cc2[N+](=O)[O-])C(=O)C1 [Compound 15, 2-(2-Nitro-4-trifluoromethylbenzoyl)-5,5-dimethyl-cyclohexane-1,3-dione]
cytotoxicity (in words) ([1]; HFb, LD50 24 h): not cytotoxic
LD50 24 hours ([1]; HFb, MTT, 24 hours treatment): > 0.01 mM
IC50 [2]: 61.6 ± 7.4 nM

Cc1cc(C2C(=O)C(C(=O)c3ccc(Cl)cc3)C(=O)CC2(C)C)on1 (centres unmarked) [Compound 10, 2-(4-chlorobenzoyl)-5,5-dimethyl-4-(3-methyl-isoxazol-5-yl)-cyclohexane-1,3-dione]
LD50 24 hours ([1]; human, 24 h): >1 mM [c]
LD50 144 hours ([1]; human, 144 h): 0.82 ± 0.20 mM
IC50 [2, 6]: 59900 ± 1800 nM
